Results from publication PMC3214651 (Antiviral research, 2009).

How the values were obtained:
[1] = system: WNV; details: ref Zou et al., 2008; cited from earlier work
[2] = target: WNV NTPase (NS3) (West Nile virus, UniProt Q9Q6P4); assay: NTPase assay; assay type: biochemical; details: 1 µM, control compound
[3] = target: WNV protease (NS2b-NS3) (West Nile virus, UniProt Q9Q6P4); assay: Protease assay; details: 25 µM, control compound

Question: For O[C@H]1[C@H]2c3cc4c(cc3CN3CCC(=C[C@@H]1O)[C@H]23)OCO4 [lycorine], which EC50 [1] is on record?
Answer: The EC50 was 230 nM.

Question: And the TI [1]?
Answer: Its TI is 104.

Question: For Nc1nc2c(ncn2[C@@H]2O[C@H](COP(=O)(O)OP(=O)(O)OP(=O)(O)O)[C@@H](O)[C@H]2O)c(=O)[nH]1 [nonradioactive GTP, GTP], which “suppression of NTPase activity” value [2] is on record?
Answer: Its value is > 85%.

Question: For aprotinin, which “suppression of protease activity” value [3] is on record?
Answer: Its value is > 85%.
